In patent US20250345345A1, “METHODS FOR THE TREATMENT OF NEUROLOGICAL DISORDERS” (Praxis Precision Medicines, Inc., priority 2022, published 2025):

Assays:
[1] = evening versus morning administration; as disclosed in WO 2022/232104; cited from earlier work
[2] = system: PTZ-evoked seizures in CD-1 male mice; assay: PTZ acute seizure model, combination of Compound 1 with Compound A (Example 2); type: in vivo; details: 30 minutes before PTZ 120 mg/kg s.c., n=12
Experimental: The combination of Compound 1 with Compound A for the treatment of seizures was investigated using a PTZ acute seizure model. Accordingly, the effect on PTZ-evoked seizures was evaluated for a vehicle control, Compound A alone, Compound 1 alone, and a combination of Compound 1 and Compound A.
Six-week old CD-1 male mice (25-35 g) were used in the following experiment. Study groups (n=12 for each group) were as follows: • (1) 35% 2-hydroxypropyl-beta-cyclodextrin (HPBCD), the vehicle for Compound 1 and Compound A (10 ml/kg, p.o.); • (2) Compound A (1 mg/kg, p.o.); • (3) Compound A (3 mg/kg, p.o.); • (4) Compound A (6 mg/kg, p.o.); • (5) Compound A (10 mg/kg, p.o); • (6) Compound 1 (10 mg/kg, p.o.); and • (7) Compound A (1 mg/kg, p.o.) and Compound 1 (10 mg/kg, p.o.).
In each instance, 30 minutes after administration of the vehicle or compound(s), PTZ was administered at 120 mg/kg, s.c., 10 ml/kg.
Dosing solutions were made from stock solutions of the highest dose and diluted down for the lower doses. All solutions were protected from light and made fresh daily for two experiment days. […]
Latency and total numbers of clonic/tonic seizures were recorded for 30 minutes, and latency to death was also recorded up to 30 minutes. […] The latency and number of seizures for each mouse was recorded by an individual blinded to the treatment. […]

[3] = evening versus morning dosing; Khodadoustan et al. 2017; cited from earlier work

Q: With `COC[C@@]1(O)CC[C@@]2(C)[C@@H](CC[C@@H]3[C@@H]2CC[C@]2(C)[C@@H](C(=O)Cn4ccnc4)CC[C@@H]32)C1` [Compound 1, 3α-Hydroxy-3β-methoxymethyl-21-(1′-imidazolyl)-5α-pregnan-20-one] as the compound, how does the “maximum observed plasma concentration (Cmax), evening compared to morning administration” value [1] read?
A: reduces

Q: What about the “overall drug exposure (AUCinf), evening compared to morning administration” value [1] of the same compound?
A: similar

Q: And the “time to maximum plasma concentration (tmax), evening compared to morning administration” value [1]?
A: increases

Q: And the “seizure-free mice of the twelve mice” value ([2]; Compound 1 10 mg/kg p.o. alone, n.s. versus combination)?
A: 3

Q: With `CCOC(F)(F)c1nnc2ccc(-c3cnc(OCC(F)(F)F)c(F)c3)cn12` [Compound A] as the compound, how does the “seizure-free mice of the twelve mice” value ([2]; Compound A 1 mg/kg p.o. alone, p<0.01 versus combination) read?
A: none

Q: Which “Cmax, evening administration compared to morning dosing” value [3] does the source give for `CCOC(=O)C1=C(COCCN)NC(C)=C(C(=O)OC)C1c1ccccc1Cl` (stereo not shown) [amlodipine besylate] here?
A: increased

Q: What about the “Tmax, evening administration compared to morning dosing” value [3] of the same compound?
A: reduced
